Structures are written as SMILES.

The text below walks through data of patent US20110195910A1, “USE OF TOCOTRIENOL COMPOSITION FOR THE PREVENTION OF CANCER” (DAVOS LIFE SCIENCE PTE. LTD., priority 2008, published 2011).

In one experiment the test system is C32 cells. Nature of the experiment: Flow cytometry and western blotting, C32 cells. It counts as cell-based. The protocol:
1.1.3 Flow cytometry—Cell cycle distribution was examined using flow cytometry. Briefly, cells were harvested by trypsinization, fixed in 70% ethanol at 4° C. overnight, and then resuspended in PBS. After incubation at 4° C. for overnight, 2×10^6 cells were incubated with in 20 μg/ml propidium iodide (PI) and 2 mg RNaseA for 15 minutes at 37° C. Cells were then examined by BD SLRII cytometer and the results were analyzed using ModFit software (Becton Dickinson, Mountain View, Calif.). Data were expressed as the percentage of cell cycle distribution in the entire population.
1.1.5 Western blotting—Detailed protocols have been described previously and are known in the art. Briefly, cell lysates were prepared by suspending cell pellets in lysis buffer [50 mmol/l Tris-HCl (pH 8.0), 150 mmol/l NaCl, 1% NP40, 0.5% deoxycholate, 0.1% SDS, 1 mg/ml aprotinin, 1 μg/ml leupeptin and 1 mmol/l phenylmethylsulfonyl fluoride]. For nuclear protein extraction, NucBuster™ protein extraction kit was used. Protein concentration was measured using the DC Protein Assay kit (Bio-Rad, Hercules, Calif.). Equal amount of protein (30 μg) was loaded onto a 10% SDS polyacrylamide gel for electrophoresis and then transferred onto a polyvinylidene difluoride membrane (Amersham, Piscataway, N.J.). The membrane was then incubated with primary antibodies for 1 hr at room temperature against E-cadherin (BD Biosciences, Bedford, Mass.), α-catenin, β-catenin, γ-catenin, Id-1, Id-3, EGFR, phosphor-c-jun, phosphor-ATF2, cleaved PARP, vimentin, α-smooth muscle actin, twist (Santa Cruz Biotechnology, Calif.), phosphor-IkB-alpha (Ser32/36), phosphor-IKK alpha (Seri 80)/IKK beta (Ser181), phosphor-SAPK/JNK (Thr183/Tyr185) G9, SAPK/JNK, NF-kB p65 (5A5) (Cell Signaling Technology Inc, Beverly, Mass.), Snail (Abcam). After incubation with appropriate secondary antibodies, signals were visualized by ECL western blotting system (Amersham, Piscataway, N.J.). Expression of β-actin and histone H1 were assessed as an internal loading control for total cell lysate and nuclear protein lysate respectively.
(Flow cytometry measures light scatter and fluorescence of single cells or particles in a stream.)

In experiment [1] the test system is prostate intraepithelial neoplasia (PIN). Nature of the experiment: Prevention of prostate intraepithelial neoplasia (PIN) in prostate cancer mouse models. Format: in vivo. The conditions noted are these: fed mice, FIG. 8. The method, then:
For experiments, 5-week old prostate cancer mouse models previously published (Gabril, M. Y., Duan, W., et al., Molecular Therapy (2005), vol. 11, no. 3, p. 348; Greenberg et al., Proc Natl Acad Sci USA (1995), vol. 92, pp. 3439-3443; Duan, W., Gabril, M. Y., et al., Oncogene (2005) 24, 1510-1524; Wang S, Gao J, et al., Cancer Cell., 2003, vol. 4, no. 3, pp. 209-21; Gabril, M. Y., Onita, T., et al., Gene Ther., 2002, vol. 9, no. 23, pp. 1589-99) are used. All animal experiments were conducted according to standard protocols approved by Animal Care Committee. Genotyping was performed in PSP-TGMAP, and KIMAP mice were identified by a quick PCR genotyping protocol as previously reported (see above references referred to under item 6).
In one exemplary experiment, the animals are given 1 mg of gamma tocotrienol per day for 30 weeks via oral gavage. At the end of 10, 20 and 30 weeks, animals are sacrificed. The prostate along with the male accessory glands, i.e., the ventral and dorsolateral prostate lobes, seminal vesicles, and coagulation gland, were dissected out separately for histopathological characterization of prostate tumor development, prostate intraepithelial neoplasia (PIN) development and microinvasion. […]

Experiment [2] relates to PCa tumors (PC-3-Luc xenograft). Nature of the experiment: Immunohistochemistry of xenograft tumor tissues. Also on record: species or system BALB/c athymic nude mice. The following applies: mouse, in vivo. The protocol: 4.1.9 Immunohistochemistry—Tumor, liver, kidney, spleen, lung and heart of mice were fixed in 10% neutral buffered formalin for 12 h. After fixation, the tissue samples were processed into paraffin blocks. Tissue sections were cut at a thickness of 5 using Kedee microtome (China JINHUA Kedi Co., Ltd, Zhejiang, China), then deparaffinized in toluene and rehydrated from graded of alcohols to distilled water. Endogenous peroxidase activity was blocked by treating the sections with 0.6% hydrogen peroxide in methanol for 20 min, followed by antigen retrieval treatment. (Dako, Glostrup, Denmark). The sections were then incubated with peroxidase blocking solution (Dako, Glostrup, Denmark) for 1 h at 37° C. to remove any nonspecific antigens. The specimens were incubated overnight at 4° C. with primary rabbit polyclonal antibody against Snail (1:200), Id1 (1:250) (Abcam, Cambridge, UK), cleaved caspase-3 and cleaved PARP (1:50; Cell Signalling Technology, Inc., Beverly, Mass., USA) and mouse monoclonal antibody against proliferating cell nuclear antigen (PCNA), Ki-67, E-cadherin (1:50; Santa Cruz Biotechnology, Santa Cruz, Calif., USA). After several rinse in TBS, the sections were incubated with Dako REALT EnVisionT/HRP, Rabbit/Mouse solution for 1 h at 37° C. The reaction was visualized by Dako REALT DAB^+ chromogen. Mayer's haematoxylin (Dako, Glostrup, Denmark) was used as counter stain. Standard inverted light microscopy (Nikon, Tokyo, Japan) was used to analyze the slides.

As for `CC(C)=CCC/C(C)=C/CC/C(C)=C/CCC1(C)CCc2cc(O)c(C)c(C)c2O1` (stereo not shown) [γ-T3, 7,8-dimethyltocotrienol], in the experiment with C32 cells (C32), the JNK phosphorylation entry is reported as “dosage-dependent increase in JNK phosphorylation activities” and the “NF-κB p65 activity (nuclear translocation)” value is “suppressed constitutive NF-κB p65 activity in a dose-dependent manner”. In addition, in the experiment on C32 cells (C32, different γ-T3 dosage, 24-hr), the “activation of pro-apoptotic proteins (cleaved products)” value is listed as “activation of procaspase 3, 7, 9 as well as PARP”. In addition, in the experiment on C32 cells (C32, increasing dosages), the “Id-1 and Id-3 expression levels (EGF-R similar)” value was “significantly suppressed to almost undetectable level”. The “sub-G1 cell population (flow cytometry)” value with C32 cells (melanoma cells, γ-T3 at IC50, 24-hr) is listed as “induction of sub-G1 cell population”. Besides, the “development of prostate intraepithelial neoplasia (PIN)” value in experiment [1] was “prevent the formation of prostate intraepithelial neoplasia (PIN)”. For the same compound, in experiment [2], the “E-cadherin expression in tumor sections” value is “up-regulated”; the “Snail expression in tumor sections” value was “down-regulated”; the “level of PCNA, Ki67 and Id-1 in tumors” value is given as “downregulated”; the “level of cleaved caspase 3 and PARP in tumors” value was “induced”.
